This series concerns LNCaP cells (PSMA+). In words: LNCaP FACS binding assay with fluorescein-labeled aptamers. In kind it is cell-based. To be noted: relative to parent A9. The protocol: To prepare aptamers for the FACS assay, PSMA aptamers were serially diluted (0-1 uM) in FACS buffer (1×DPBS w/Ca^++/Mg^++ (Gibco, Carlsbad, Calif.) supplemented with 10 mg/mL salmon sperm DNA & 0.2% Na Azide), in a V-bottom 96 well plate, at the concentrations to be tested. LNCaP and PC-3 cells (ATCC, Manassas, Va.) were harvested with trypsin, and 200,000 cells/well were counted, washed once with 1×DPBS (with Ca^++ and Mg^+) and resuspended in 200 μl of FACS Buffer. The 200 μl of cells in FACS buffer were added to individual wells of a new 96 well plate, pelleted by centrifugation (1300 rpm for 5 minutes), and resuspended in 100 μl of the appropriate concentration of diluted aptamer. FACS buffer, a-PSMA antibody (3C6) (Northwest Biotherapeutics, Bothell, Wash., Cat #: 60-5002) and an irrelevant fluorescein isothiocyanate (“FITC”) mouse IgG1 isotype control antibody (BD Pharmingen, San Diego, Calif., Cat#: 554679) were used as controls. The wells of aptamer/cell mixture were incubated at room temperature for 20-30 minutes.
After incubation, 180 μl of FACS buffer (plus 10 mg/mL ssDNA, and 0.2% Na Azide) was added to each well to quench the reaction and cells were pelleted by centrifugation.
Anti-fluorescein/Oregon Green®, rabbit IgG fraction, Alexa Fluor® 488 conjugate (Molecular Probes, Eugene, Oreg., Cat#: A11090) was diluted 1:100 in FACS buffer (100 μl/well) as the secondary antibody for the aptamer-FITC conjugates and FITC-mouse IgG isotype control. FITC Rat anti-mouse IgG1 (A85-1) (BD Pharmingen, San Diego, Calif., Cat#: 553443) was diluted in 1:100 in FACS Buffer as the secondary for the α-PSMA antibody. After centrifugation, the cell pellets were resuspended in 100 μl of the appropriate diluted secondary antibody, and incubated 10 minutes at room temperature. After incubation, 180 μl of FACS buffer was added to each well to quench the reaction, and cells were pelleted by centrifugation.
A tertiary antibody which recognizes the Alexa Fluor® 488 goat anti-rabbit IgG was prepared to further amplify the Alexa Fluor signal. Alexa Fluor® 488 goat anti-rabbit IgG (H+ L) (Molecular Probes, Eugene, Oreg., Cat#: A11034) was diluted 1:100 in FACS buffer, and the pelleted cells were resupsended in 100 μl of the tertiary antibody and incubated for 10 minutes at room temperature. […]
Cell samples were analyzed on a FACS Scan machine (Becton Dickinson, San Jose, Calif.) under the following parameters: FSC/SSC, FL-1/FSC, FL-3/FSC. The unstained and/or isotype controls were used to establish gating parameters, and the data was analyzed using Cell Quest Pro software version 5.1.1 (Becton Dickinson Immunocytometry Systems, San Jose, Calif.).
Background: In flow cytometry, cells or beads pass a laser one at a time.

Data on 1 substance can be found in patent US20090105172A1, “Stabilized Aptamers to PSMA and Their Use as Prostate Cancer Therapeutics” (priority 2005, published 2009).

As to “GGAGGAfCfCGAAAAAGAfCfCfUGAfCfUfUfCfUAfUAfCfUAAGfUfCfUAfCGfUfUfCfCfUfCfCA (GGAGGACCGAAAAAGACCUGACUUCUAUACUAAGUCUACGUUCCUCCA; 2'-fluoro at 7, 8, 17, 18, 19, 22, 23, 24, 25, 26, 28, 30, 31, 35, 36, 37, 39, 41, 42, 43, 44, 45, 46, 47, other sugars and backbone not given here) [ARC591, 48-nt minimer of A9]”, the “functional activity in the LNCaP FACS assay” value is recorded as “retained full functional activity”.
